The text below walks through data of patent EP0461043A2, “Enantiomer separation by transesterification” (SEPRACOR, INC., priority 1990, dated 1991).

One data set in a line: Water solubility. The data set is classed as physicochemical. Conditions: for water solubility: charged water-soluble reactant esters (salts), values given in M; for solubility in water: esters, values given in mM.
For data set [1] the following is noted: L form relative to D form; cited from earlier work.

Counter-ions that a name gives are not always drawn.

With `COc1ccc2cc(C(C)C(=O)OCC[N+](C)(C)C)ccc2c1` (racemic) [choline ester of 2-(6-methoxy-2-naphthyl) propanoic acid], the water solubility in the data set “Water solubility” stood at 1610 mM. Turning to `CC(C)Cc1ccc(C(C)C(=O)O)cc1` (stereo not drawn) [Ibuprofen, 2-(p-isobutylphenyl) propanoic acid, reference compound], the “water solubility at room temperature” value in the data set “Water solubility” (acid forms, room temperature, varies with pH) is on record as “single digit mM range”. For the molecule `CC(C)NCC(O)COc1cccc2ccccc12` (stereo not drawn) [L form of the beta blocker propranolol, propranolol], the “times more potent than the D form” value in data set [1] is listed as 100 times.

Turning to `COCCOC(=O)C(C)c1ccc(CC(C)C)cc1` (stereo not drawn) [methoxy-ethyl ester of Ibuprofen], the solubility in water result in “Water solubility” was “approximately 0.18 mM”.

Take `CC(C)Cc1ccc(C(C)C(=O)OCC[N+](C)(C)C)cc1` (stereo not drawn) [methyl sulfate salt of N,N,N-trimethylammonium ethyl ester of Ibuprofen]: the water solubility in “Water solubility” turned out to be 2180 mM. For `CCCCCCCCOC(=O)C(C)Cl` (stereo not drawn) [octyl ester of 2-chloropropanoic acid], the solubility in water entry in “Water solubility” is recorded as “about 1.2 mM”.
